pIC50: −log10 of the molar value.
Key:
[1] = tested on: SW1573; experiment: Drug combination synergy assay (inhibition matrix); assay type: cell-based; details: Homo sapiens, read-out: inhibition of cell growth
Description: The synergy finder codes were used to determine the synergy between drugs for 48 possible combinations. The codes were run using the R-platform and synergy was calculated and represented as the synergy landscape.
Drug Combination Synergy Assay: For combination index (CI) calculation, SW1573 and H23 incured cell lines were seeded in 96-well plate with 5000 cells per well. Three biological replicates (three 96-well plates for each drug combination) were used. […] The drugs were used in linear dilution series with dilution factor of 2. […] Further, R package called SynergyFinder (He et al., 2018) was used to find the nature of drug-drug interaction (i.e. if they work in synergy or antagonistically or non-interactively). For this purpose, the drug response matrix is supplied to the mentioned package, which then uses several models namely Highest Single Agent (Berenbaum, 1989), Loewe additivity (Loewe, 1953), Bliss independence (Bliss, 1939) and Zero Interaction Potency (Yadav et al., 2015) to quantify the degree of drug synergy. The dose response matrix was used to calculate individual CI values for IC30, IC50 and IC70 drug treatments. The output values were used to plot isobolograms using the following formula. CI=IC50 (A) pair IC50 (A)+IC50 (B) pair IC50 (B)

[2] = tested on: H358 spheroids; experiment: 3D spheroid assay; assay type: cell-based
Description: (§1) The activation of apoptosis is marked with the increase in green fluorescence intensity.
(§2) To determine the sensitivities of the same cells in 3D, mKate expressing cells were used to generate spheroids. Spheroids were monitored in real time using the IncuCyte live cell imaging system (FIG. 1B).
(§3) Cell proliferation and apoptosis assay: Cell proliferation assays were performed using cell lines stably transfected with NucLight Red Lentivirus (Essen BioScience) to accurately visualize and count the nucleus of a single cell. Cells were seeded on a 96-well plate and allowed to adhere for 24 h. Test compounds were added at indicated concentrations. Caspase-3/7 Green Apoptosis Reagent (Essen BioScience) was also added as a green fluorescent indicator of caspase3/7-mediated apoptotic activity. To monitor cell proliferation and apoptosis over time, the plate was placed in the IncuCyte S3 Live Cell Imaging System (Essen BioScience) and images were acquired every 2 hours. Data analysis was generated by the IncuCyte software using a red fluorescence mask to accurately count each cell nucleus and a green fluorescence mask to measure apoptosis over time. 3D spheroid assay 3D spheroid experiments were performed using cell lines stably transfected with NucLight Red Lentivirus (Essen BioScience) to visualize red fluorescence as an indicator of cell viability. Cells were seeded on a 96-well ultra-low attachment plate and allowed to form spheroids overnight. Drug treatment was added as indicated along with Cytotox Green Reagent (Essen BioScience), used as a green fluorescence indicator of cell death due to loss of cell membrane integrity. To monitor cell proliferation and apoptosis over time, the plate was placed in the IncuCyte S3 Live Cell Imaging System (Essen BioScience) and images were acquired every 2 hours. Data analysis was generated by the IncuCyte software using a red fluorescence mask to accurately measure intensity and area of red fluorescence, indicating spheroid viability and a green fluorescence mask, indicating cell death. Cell cycle analysis.

[3] = tested on: H23 spheroids; experiment: 3D spheroid assay; assay type: cell-based
Description: as §1, §2, §3

[4] = tested on: SW1573 spheroids; experiment: 3D spheroid assay; assay type: cell-based
Description: as §1, §2, §3

[5] = tested on: SW1463; experiment: Cell proliferation, colorectal G12C homozygous cell line; assay type: cell-based; details: Homo sapiens, SW1463, read-out: inhibition of proliferation
Source text: For this experiment the inventors chose SW837 and SW1463 colorectal cell line. The SW837 cell is heterozygous for the G12C mutation whereas the SW1463 is homozygous for the G12C mutation. A stable cell line expressing mKATE2 for Incucyte live cell imaging and analysis was generated.

[6] = tested on: SW1573 NSCLC cells; experiment: Mouse SW1573 xenograft; assay type: in vivo, Athymic nude nu/nu mice; details: sotorasib 10 mg/kg, adagrasib 10 mg/kg, carfilzomib 2 mg/kg; oral gavage twice a week; day 56
Description: Mouse xenograft studies. Athymic nude nu/nu mice were obtained from Charles River, Wilmington, Mass., and were acclimated for a week before beginning the experiment. All animal experiments were carried out in accordance with a protocol approved by the Institutional Animal Care and Use Committee (IACUC #16004). […] All 40 animals were injected with 1×10^6 SW1573 cells suspensions in 100 μl of PBS, subcutaneously into one flank of each mouse. At the same time, animals were randomized into treatment groups. Treatment was started 12 days after the SW1573 NSCLC cells implantation to see palpable tumor growth. Treatments were given to mice via oral gavage twice a week for 8 weeks. Animals were examined daily for signs of tumor growth. Tumors were measured in two dimensions using calipers and body weights were recorded. Photographs of animals were taken at day 1, day 7, day 14, day 21, day 28, day 35, day 42, day 49, and day 56 after treatment. Photographs of tumors were also taken at day 56 after treatment. At the end of the study, the mice were euthanized by CO2 asphyxiation followed by cervical dislocation. The tumor weights were compared between groups using an unpaired Student's t-test. A portion of the tumor was fixed in 10% buffered formaldehyde solution and paraffin-embedded for immuno-staining or was snap-frozen in liquid nitrogen for further molecular analysis such as western blotting.

C=CC(=O)N1CCN(c2nc(=O)n(-c3c(C)ccnc3C(C)C)c3nc(-c4c(O)cccc4F)c(F)cc23)[C@@H](C)C1 [sotorasib]
inhibition at 16 µM [1]: ~10% | drop in spheroid red intensity ([2]; H358, 0.3 μM): about 80% | inhibition at 0.3 µM ([2]; Homo sapiens, NCI-H358, H358, 0.3 μM, read-out: inhibition of spheroid area): 90% | pIC50 ([2]; Homo sapiens, NCI-H358, H358 spheroid, read-out: IC50 in cell line derived spheroid): 8.66 | drop in spheroid red intensity ([3]; H23, 0.3 μM): about 40% | inhibition at 0.3 µM ([3]; H23, 0.3 μM, read-out: inhibition of spheroid area): 70% | spheroid red intensity dropped to ([3]; H23, 10 μM): 80% | pIC50 ([3]; H23 spheroid, read-out: IC50 in cell line derived spheroid): 4.91 | inhibition at 0.3 µM ([4]; Homo sapiens, SW1573, 0.3 μM, read-out: inhibition of spheroid area): 30% | inhibition at 10 µM ([4]; Homo sapiens, SW1573, 10 μM, read-out: inhibition of spheroid area / reduction in spheroid growth): ~40% | pIC50 ([4]; Homo sapiens, SW1573 spheroid, read-out: IC50 in cell line derived spheroid): 4.90 | spheroid red intensity dropped to ([4]; SW1573, 10 μM): 70% | inhibition at 10 µM [5]: 40% | reduction in tumor area [6]: about 52%

Reference: patent US20230285498A1, “TREATMENTS FOR CANCERS HAVING KRAS MUTATIONS” (City of Hope, priority 2020, published 2023)
